The values below come from patent publication US9353048B2, “Compound as KCNQ potassium channel agonist, preparation method therefor and use thereof” (SHANGHAI INSTITUTE OF MATERIA MEDICA, CHINESE ACADEMY OF …, priority 2011, dated 2016).

Where “and” joins values, the source holds several entries; their conditions need not be identical. Equal entries are not always repeated. Entries after “also recorded” stand apart in the source; their conditions may differ. Structures can show the parent of a compound that is named as a salt. Marks after values point to notes of the source that are not given here.

In data set [1] the test system is Convulsion Induced by Pentylenetetrazole (PTZ). In words: Convulsion induced by pentylenetetrazole (PTZ), compounds by gastric lavage, C57BL/6J mice. The format is in vivo. Particulars: 30 mg/kg gastric lavage; for Latency period of clonus / Latency period of whole-body tonic seizures / Mortality rate / Incidence rate of convulsion: PTZ 80 mg/kg s.c. 1 h later; for Incidence rate of convulsion: observed 60 min; for anti-convulsive effect (in words): PTZ-induced convulsion. Here is the method:
The compounds to be tested were administrated to animals by gastric lavage (30 mg/kg); one hour later, pentylenetetrazole was administrated by subcutaneous injection (PTZ 80 mg/kg); and response of animals were observed within a period of 60 min.

The subject of data set [2] is Animal Models Induced by PTZ (Pentylenetetrazole). The experiment in a line: PTZ test, compounds by intraperitoneal injection, KM mice. The format is in vivo. The note with it: for Incidence rate of convulsion: PTZ 100 mg/kg s.c. 30 min later, observation 1 h. How it is done:
Compounds to be tested were administrated by intraperitoneal injection (10 mg/kg, 5 mg/kg, 2.5 mg/kg, 0.1 ml/10 g).

For data set [3], the system named is Animal Models Induced by MES (Maximum Electroshock). In words: MES test, compounds by intraperitoneal injection, KM mice. Particulars: 10 mg/kg i.p.; for Mortality rate / Incidence of convulsion: MES 30 min later; for Incidence of convulsion: tonic hind limb extension. It counts as in vivo. The source says:
(§1) One time of electrical stimulation was applied to animals through ear clip electrodes, and a convulsion characterized by a tonic hind limb extension was observed. One day before the test, animals were screened in the above procedure to record the values of MES.

The subject of data set [4] is Animal Models Induced by MES. The experiment in a line: MES test, compounds orally administrated (gastric lavage), KM mice. It counts as in vivo. The note with it: for Incidence rate of convulsion / Protection rate of compounds: 30 mg/kg gastric lavage, MES 1 hour later; for effect in MES test (in words): gastric lavage. Here is the method: as §1
1 hour later, MES was applied according to parameters set the last day, and response of animals were observed and recorded immediately.

Data set [5] in a line: Solubility in water (treatment of samples).
The subject of data set [6] is Animal Models Induced by PTZ. The experiment in a line: PTZ test, compounds orally administrated (gastric lavage), KM mice. The note with it: for Incidence of tonic fore limb extension / Incidence of tonic hind limb extension / Latency period of clonus / Latency period of fore limb extension / Mortality rate / Incidence rate of clonus: 30 mg/kg gastric lavage; for Incidence rate of clonus: PTZ 100 mg/kg s.c. 1 h later, observation 1 h; for effect in PTZ test (in words): gastric lavage.
Procedure: Response of animals were observed immediately and recorded within a period of 1 h.

The test system of data set [7] is KCNQ channels. The experiment in a line: Whole-cell voltage-clamp electrophysiological recording in CHO cells transfected with KCNQ channels. The format is cell-based. Particulars: for I/I0: activation multiple, maximum induced current at −10 mV testing voltage after administration (10 μM) vs before, >1 activating, <1 inhibiting; for ΔV1/2: shift of V1/2 of current activation curve, negative sign = left-ward shift, CHO cells. Here is the method: The formulation of culture fluid for Chinese hamster […] (CHO) (Culture Collection of Chinese Academy of Sciences): 50/50 DMEM/F-12 (Cellgro, Mamassas, Va.), 10% fetal bovine serum (FBS) (Gibco, Australia) and 2 mM […] (Invitrogen). […] Lipofectamine2000™ agent (Invitrogen) was used for Transfection according to the protocol thereof. […] After cotransfection with GFP (green fluorescent protein), transfected cells could be determined under a fluorescence microscopy.
Whole-cell voltage-clamp recording was performed by using Axopatch-200B amplifier (Molecular Devices, Sunnyvale, Calif.) at room temperature. Borosilicate glass capillary tubes (World Precision Instruments, Sarasota, Fla.) were drawn into electrodes. The electric resistance of the electrodes filled with an intracellular fluid is 3 to 5 MΩ. […] During the recording, an extracellular fluid was continuously perfused by using a BPS perfusion system (ALA Scientific Instruments, Westburg, N.Y.). The formulation of the extracellular fluid was as follows: 140 mM NaCl, 5 mM KCl, 2 mM CaCl2, 1.5 mM MgCl2, 10 mM HEPES and 10 mM glucose (the pH value of the extracellular fluid was adjusted to 7.4 with NaOH). […] Resistors were connected in series to compensate 60 to 80% of signal loss. At present, multivoltage scheme was generally adopted, wherein the clamp voltage was set at −100 mV. Current was induced in cells by a series of 2000 ms stimulating voltage (from −90 mV up to +50 mV, with interval of 10 mV).
In the following table, V1/2 is the voltage at which 50% of cells were activated, ΔV1/2 is amount of a left-ward shift of V1/2, negative sign (−) represents a left-ward shift of the current activation curve and positive sign (+) represents a right-ward shift of the curve. I/I0 is the activation multiple, wherein, I0 is the maximum induced current produced under stimulation of −10 mV testing voltage, I is the maximum induced current produced under stimulation of −10 mV testing voltage after administration (10 μM), I/I0>1 represents activating activity, and I/I0<1 represents inhibiting activity. N is the number of tested cells. NT represents non-tested.

The nature of data set [8]: in vivo. The note with it: mouse, 20 mg/kg. How it is done:
Two hours after administration, animal were fed uniformly. Specific arrangement was as following table.
After administration by gastric lavage or intravenous injection, mice were sacrificed by cutting abdominal aorta at time points set as the above with 3 mice for each time point. 0.5 mL of whole blood was collected for each animal, placed into a heparinized test tube and subjected to centrifugation at 3000 rpm to separate plasma, which was then cryopreserved in a −20° C. refrigerator. After the animals were sacrificed, their whole brain was collected, washed with ice-cooled physiological saline to remove residual blood. Then the residual liquid was absorbed to dryness. The treated brain was labeled and cryopreserved in a −20° C. refrigerator.

On to `CCOC(=O)Nc1ccc(NCc2ccc(F)cc2)cc1N` [Retigabine, retigabine, reference compound], for which, in data set [1], the “Latency period of clonus” value is given as “No typical”, the “Latency period of whole-body tonic seizures” value was 1472 ± 961 s, the Mortality rate was 4/10 and the “Incidence rate of convulsion” value is 5/10. In addition, the “anti-convulsive effect (in words)” value in data set [1] is “comparable anti-convulsive effect”. Besides, the “behaviour of animals after administration” value in data set [1] (returned to normal after 20 min) is “quite and less active”. Besides, in data set [2] (2.5 mg/kg i.p.), the “Incidence of tonic fore limb extension” value is recorded as 5/10, the “Incidence of tonic hind limb extension” value is on record as 1/10**, the “Latency period of clonus” value was determined as 179 ± 60 s and the “Latency period of tonic hind limb” value worked out at 827 s. In data set [2] (2.5 mg/kg i.p.), the Mortality rate was 7/10 and the “Incidence rate of convulsion” value was 10/10. For the same compound, in data set [2] (5 mg/kg i.p.), the “Incidence of tonic fore limb extension” value was 4/10, the “Incidence of tonic hind limb extension” value was 2/10*, the “Latency period of clonus” value stood at 184 ± 40 s and the “Latency period of tonic hind limb” value was 883 ± 151 s. In addition, in data set [2] (5 mg/kg i.p.), the Mortality rate is reported as 5/10 and the “Incidence rate of convulsion” value is 10/10. For the same compound, in data set [2] (10 mg/kg i.p.), the “Incidence of tonic hind limb extension” value was 4/12*, the “Latency period of clonus” value is 239 ± 113 s, the “Latency period of tonic hind limb” value came to 1100 ± 319 s and the Mortality rate was 2/12**. Further, the “Incidence rate of convulsion” value in data set [2] (10 mg/kg i.p.) was 10/10. Further, the sedative effect entry in data set [2] (intraperitoneal injection) was “some sedative effect”. Also, in data set [3], the Mortality rate worked out at 0 and the Incidence of convulsion is reported as 4/11**. In data set [4], the “Incidence rate of convulsion” value is 5/13***, the “Protection rate of compounds” value is recorded as 61.5%*** and the “effect in MES test (in words)” value was “significantly inhibiting the incidence of the grand mal seizure; also recorded: comparable effect”. The “solubility in water (in words)” value in data set [5] is reported as “can be easily dissolved in water”. Besides, in data set [6], the “Incidence of tonic fore limb extension” value is on record as 3/12**, the “Incidence of tonic hind limb extension” value was 0/12**, the “Latency period of clonus” value came out at 177 ± 70 s and the “Latency period of fore limb extension” value worked out at 1063 ± 284 s. Further, in data set [6], the Mortality rate is reported as 0/12**; the “Incidence rate of clonus” value is recorded as 12/12; the “effect in PTZ test (in words)” value was “obviously reduce the incidence rate of convulsion and mortality rate; also recorded: significantly reduce the incidence rate of convulsion and mortality rate”.

For the compound `C#CCN(Cc1ccc(F)cc1)c1ccc(NC(=O)OC)cc1` [Compound K9, methyl 4-(N-parafluorobenzyl-N-propargyl-imino)-aniline formate], in data set [7], the I/I0 came to 3.27 ± 0.10 and the ΔV1/2 is −24.21 ± 2.4 mV. In data set [1], the “Latency period of clonus” value is on record as 351 ± 84.3 s, the “Latency period of whole-body tonic seizures” value was 1382 ± 339 s, the Mortality rate was 4/10 and the “Incidence rate of convulsion” value is 4/10. Also, the “anti-convulsive effect (in words)” value in data set [1] is “comparable anti-convulsive effect”. In data set [8] (male, KM), this compound returned a Kp of 1.9 and a bioavailability of 26%. Also, in data set [8] (male, KM, iv), the exposure AUC(0-t) amounted to 7180 ng·h/mL, the Kp came to 1.5 and the clearance is 46.3 mL/min/kg. Further, in data set [8] (male, KM, po), the AUC(0-t) was determined as 1860 ng·h/mL; the Cmax is 2200 ng/mL and 4420 ng/g; the half-life was roughly 1.2 h. In addition, in data set [8], the “area under the concentration-time curve (AUC0-t) in brain tissue” value came to 3565 ng·h/g. Further, the “area under the concentration-time curve (AUC0-t) of brain tissue” value in data set [8] (iv) is reported as 10694 ng·h/g. Moreover, in data set [5], the “solubility in water (in words)” value is reported as “can not be easily dissolved in water”.

Take `COC(=O)Nc1ccc(NCc2ccc(F)cc2)cc1` [Compound K1]: in data set [7], the I/I0 came to 2.84 ± 0.08 and the ΔV1/2 is on record as −8.1 ± 3.1 mV. In addition, in data set [1], the “Latency period of clonus” value worked out at 250 ± 114 s, the “Latency period of whole-body tonic seizures” value is given as 1785 ± 408 s, the Mortality rate is 3/10 and the “Incidence rate of convulsion” value is 4/10. The “solubility in water (in words)” value in data set [5] was “can not be easily dissolved in water”.

Regarding `C#CCN(Cc1ccc(F)cc1)c1ccc(NC(=O)OCC)c(N)c1` [Compound K21, ethyl 2-amino-4-(N-parafluorobenzyl-N-propargyl-imino)-aniline formate], in data set [7], the I/I0 is listed as 1.53 ± 0.15 and the ΔV1/2 is −47.9 ± 3.5 mV. In data set [2] (2.5 mg/kg i.p.), the “Incidence of tonic fore limb extension” value is listed as 2/10, the “Incidence of tonic hind limb extension” value is on record as 0/10***, the “Latency period of clonus” value came out at 184 ± 42 s and the Mortality rate is 1/10**. Besides, the “Incidence rate of convulsion” value in data set [2] (2.5 mg/kg i.p.) is listed as 9/10. Also, in data set [2] (5 mg/kg i.p.), the “Incidence of tonic fore limb extension” value is 3/10, the “Incidence of tonic hind limb extension” value is on record as 0/10***, the “Latency period of clonus” value came out at 238 ± 54 s and the Mortality rate is reported as 1/10**. Moreover, the “Incidence rate of convulsion” value in data set [2] (5 mg/kg i.p.) was 10/10. Further, in data set [2] (10 mg/kg i.p.), the “Incidence of tonic hind limb extension” value is reported as 0/12***, the Mortality rate is listed as 0/12*** and the “Incidence rate of convulsion” value is listed as 12/12. Further, in data set [2] (intraperitoneal injection), the sedative effect entry is listed as “some sedative effect”. The “anti-convulsive effect compared with retigabine (in words)” value in data set [2] (intraperitoneal injection, same dosage, PTZ and MES tests) is reported as “slightly stronger than that of retigabine”. Also, in data set [3], the “grand mal seizure in MES test (in words)” value is “completely avoided the grand mal seizure”, the Mortality rate came out at 0 and the Incidence of convulsion was 2/10***. Further, in data set [4], the “Incidence rate of convulsion” value is listed as 2/13***, the “Protection rate of compounds” value stood at 84.6%*** and the “effect in MES test (in words)” value is on record as “significantly inhibiting the incidence of the grand mal seizure”. In addition, in data set [5], the “solubility in water (in words)” value is recorded as “can not be easily dissolved in water”. In data set [6], the “Incidence of tonic fore limb extension” value was 5/12, the “Incidence of tonic hind limb extension” value was 0/12**, the “Latency period of clonus” value stood at 148 ± 37 s and the “Latency period of fore limb extension” value was 1561 ± 690 s. Besides, in data set [6], the Mortality rate is 3/12, the “Incidence rate of clonus” value is reported as 12/12 and the “effect in PTZ test (in words)” value is recorded as “significantly inhibit tonic seizures”.
